Experimental findings from patent publication US8633226B2, “Piperidinyl derivative as a modulator of chemokine receptor activity” (Bristol-Myers Squibb Company, priority 2008, dated 2014) are described below.

Data set [1] can be described thus: In vitro metabolism assay, human liver microsomes, Assay Conditions B. The class given is in vitro ADME. Particulars: 10 min, 3 μM, pH 7.4. The protocol:
Test compound is received as 20 mM in DMSO. Compound is diluted to create a 300 μM acetonitrile (ACN) solution containing 1.5% DMSO, which is then used as a 100× stock for incubation with microsomes. Each compound is tested in duplicate separately in each of three species in the Metabolic Stability-Human, Rat, Mouse assay suite or individual species in the Metabolic Stability-Dog or Metabolic Stability-Monkey suites. Compound, NADPH and liver microsome solutions are combined for incubation in three steps: • 1. 450 μL of liver microsome suspension, protein concentration of 1 mg/mL in 100 mM NaPi, pH. 7.4, 6.6 mM MgCl2 buffer, are pre-warmed at 37° C. • 2. 5 μl of 300 μM compound (98.5% CAN, 1.5% DMSO) is added to the same tube. • 3. The reaction is initiated by the addition of 50 μl of pre-warmed 5 mM NADPH solution in 100 mM NaPi, pH 7.4.
Reaction components are mixed well and 150 μL removed to quench/stop solution immediately for the zero-minute time point. Reactions are incubated at 37° C. for 10 minutes and then an additional 150 μL removed from incubation. Aliquots removed are combined with 300 μL ACN which contains 100 μM DMN as a UV standard for detection.
Quenched mixtures are centrifuged at 1500 rpm (˜500×g) in an Allegra X-12 centrifuge, SX4750 rotor (Beckman Coulter Inc., Fullerton, Calif.) for fifteen minutes to pellet denatured microsomes. A volume of 110 μl of supernatant extract, containing the mixture of parent compound and its metabolites, is then transferred to a separate 96-well plate for UV-LC/MS-MS analysis to determine the percent of parent compound that is remaining in the mixture.
For orientation: Liver microsomes are a subcellular fraction often used to study metabolism.

The next data set deals with Human PXR (Homo sapiens (Human), UniProt O75469). The data set is described as follows: PXR transactivation assay. The class given is cell-based. The source says:
The cell culture medium used is DMEM. […] Charcoal/dextran treated fetal bovine serum (FBS) was purchased from Hyclone (Logan, Utah). HepG2 cells were obtained from ATCC (Manassas, Va.). Human PXR-pcDNA3 and luciferase reporter containing CYP3A4 promoter, CYP3A-Luc, were generated at Bristol-Myers Squibb. White tissue culture (TC)-surface 384-well plates were purchased from Perkin Elmer (Boston, Mass.). Luciferase substrate (Steady-Glo) was purchased from Promega (Madison, Wis.). Control compounds rifampicin, mifepristone, and sulfinpyrazone were purchased from Sigma (St. Louis, Mo.).
Culture of HepG2 cells is performed in T175 flasks using DMEM containing 10% FBS. The transfection mixture contains 1 μg/mL of PXR-pcDNA3 plasmid DNA, 20 μg/ml of Cyp3A-Lue plasmid DNA, 90 μL/mL of Lipofectamine 2000, and serum-free medium. After incubating at room temperature for 20 minutes, the transfection mixture (1 ml per flask) is applied to the cells in fresh medium (20 mL per flask), and flasks incubated at 37° C. (5% CO2) overnight.
The flasks are then tapped vigorously to break up cell aggregates. After the addition of 8 mL of DMEM containing 5% charcoal/dextran-treated FBS, the entire mixture is transferred to conical tubes. Cells are then centrifuged at 1000 rpm for 5 minutes. Cell pellets are resuspended to a final count of ˜7×10^6 cells/ml, in freezing media (DMEM containing 20% serum and 10% DMSO). The cell suspension is aliquoted into 15-mL polypropylene tubes, 5 mL per tube. Cells are slowly frozen by placing in a Styrofoam-insulated container at −80° C. overnight. Vials are transferred to an Ultracold (−140° C.) freezer after 24 hours for long-term storage.
Vials of cryopreserved cells are thawed rapidly in a warm water bath for five minutes. Cells are pooled and diluted to 50 mL in a 50-mL conical vial. The thawed cells are centrifuged at 1500 rpm for 5 minutes to collect the cells and the supernatant discarded. Cells are then resuspended in fresh Media II (DMEM containing 5% charcoal/dextran-treated FBS, 1% Penicillin/Streptomycin, 100 μM Non-essential Amino Acids, 1 mM Sodium Pyruvate, and 2 mM L-Glutamine), counted using the Guava Cell Counter, and diluted to 1.6×10^5 cells/ml in the same media.
Fifty microliters of cell mixture is added to wells in columns 1-23 of white tissue-culture treated 384-well plates containing 0.25 μL of test compound dissolved in 100% DMSO. Fifty microliters of Media II is added to wells in column 24. The plates are incubated at 37° C. (5% CO2) for 24 hours, then 5 μL of Alamar Blue reagent (Trek Diagnostics, Cat #00-100) is added to each well. Plates are then incubated an additional two hours at 37° C., 5% CO2 and then one hour at room temperature. […] After the fluorescence is measured, 25 μL of luciferase substrate (Steady-Glo, Promega) is added to each well. The plates are incubated for fifteen minutes at room temperature, after which the luminescence is read on a PheraStar (BMG Labtech) plate reader.
Rifampicin (10 μM), a well-known agonist of PXR, is included in each plate as an internal standard and positive control. The data is then expressed as percent control (% CTRL), where the control signal is the signal from the 10 μM rifampicin and the blank signal is that from the DMSO vehicle. % CTRL=((Compound signal−Blank signal)/(Control signal−Blank signal))*100
The EC50 is defined as the concentration corresponding to half of the maximal response derived from the fitted 20-point curve as determined using a four-parameter logistic regression model. Additionally, compounds may also be reported as EC20 or EC60.

The mark [2] stands for this setting: HepG2 cells, CYP3A-Luc reporter.

Human PXR, sequence (O75469 whole entry): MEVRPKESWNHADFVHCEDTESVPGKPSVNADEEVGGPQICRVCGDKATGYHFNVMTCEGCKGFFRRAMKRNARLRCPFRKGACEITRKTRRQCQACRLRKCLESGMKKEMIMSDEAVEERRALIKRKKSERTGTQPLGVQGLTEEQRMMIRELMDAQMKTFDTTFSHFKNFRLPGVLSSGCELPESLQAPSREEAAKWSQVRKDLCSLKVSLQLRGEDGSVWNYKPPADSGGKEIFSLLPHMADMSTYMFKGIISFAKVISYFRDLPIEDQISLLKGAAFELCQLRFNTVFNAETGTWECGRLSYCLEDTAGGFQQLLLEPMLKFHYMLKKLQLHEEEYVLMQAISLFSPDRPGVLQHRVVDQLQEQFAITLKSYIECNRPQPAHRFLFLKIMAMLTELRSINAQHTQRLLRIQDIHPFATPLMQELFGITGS

A word on the EC50: it is the concentration needed to bring the measured effect to its halfway point. Regarding `CC(C)[C@@H](NC(=O)NCC(C)(C)O)C(=O)N1CC[C@](O)(c2ccc(Cl)cc2)C(C)(C)C1` [Compound I], in data set [1], the “Human Liver Microsomal Metabolism % remaining (Assay Conditions B)” value is 100% (B). Besides, the EC50 on Human PXR (setting [2]) is greater than 25 µM. On Human PXR (in vitro screen), the “PXR activation (in words)” value is “not a significant activator”.
Regarding `CC(C)CC(=O)N[C@@H](C(=O)N1CC[C@](O)(c2ccc(Cl)cc2)C(C)(C)C1)C(C)C` [#466], in data set [1], the “Human Liver Microsomal Metabolism % remaining (Assay Conditions B)” value is on record as 33%. Further, the “PXR EC60” value on Human PXR (HepG2 cells, CYP3A-Luc reporter, reported as EC60) turned out to be 1.12 µM.
As to `CC(C)[C@@H](NC(=O)C1CCCC1)C(=O)N1CC[C@](O)(c2ccc(Cl)cc2)C(C)(C)C1` [#460], the “Human Liver Microsomal Metabolism % remaining (Assay Conditions B)” value in data set [1] is recorded as 16%. Also, at Human PXR (setting [2]), the EC50 turned out to be 0.53 µM.
`CC(C)[C@@H](NC(=O)CC(C)(C)O)C(=O)N1CC[C@](O)(c2ccc(Cl)cc2)C(C)(C)C1` [#1356]: in data set [1], the “Human Liver Microsomal Metabolism % remaining (Assay Conditions B)” value was 100% (A)/100% (B). In addition, on Human PXR (setting [2]), the 50% effective concentration (EC50) came out at 1.83 µM.
